Five molecules from PubChem BioAssay (NCI) can be followed below.

Among the test systems are A498 renal; A549 NSCLC; ACHN renal; MDA-MB-435; NCI-H226 lung; NCI-H23 lung; OVCAR-3 ovarian; SF-539 CNS; SK-MEL-28 melanoma; TK-10 renal.
Common to all, as to assay: DTP human tumour cell line panel, 48 h

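Values below derive from 48-hour exposures of cells grown in 96-well plates, with endpoints linearly interpolated between the two concentrations bracketing the appropriate inhibition level. The concentration for 50% growth inhibition is given as GI50. TGI: total growth inhibition.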

For the molecule `Clc1ccc(/C=C/c2cc(N3CCOCC3)c3cc(Cl)c(Cl)cc3n2)cc1`, the GI50 in the experiment on A498 renal, in the experiment with A549 NSCLC, with ACHN renal, in the experiment on MDA-MB-435, in the experiment with NCI-H226 lung and in the experiment with NCI-H23 lung was > 100 µM in each case. The GI50 in the experiment on OVCAR-3 ovarian was 3.81 µM; with SF-539 CNS it was > 100 µM; in the experiment with SK-MEL-28 melanoma it was > 100 µM; in the experiment on TK-10 renal, > 100 µM. Moreover, the total growth inhibition concentration (TGI) in the experiment with A498 renal, in the experiment with A549 NSCLC, in the experiment with ACHN renal, in the experiment on MDA-MB-435, in the experiment on NCI-H226 lung and in the experiment with NCI-H23 lung was > 100 µM in each case. The TGI in the experiment with OVCAR-3 ovarian, in the experiment with SF-539 CNS, with SK-MEL-28 melanoma and in the experiment on TK-10 renal was > 100 µM throughout.

Take `COc1cc(-n2cc(-c3ccc(F)cc3)nc2SCc2ccccc2)cc(OC)c1OC`: the GI50 in the experiment with A498 renal is 37.4 µM; in the experiment with A549 NSCLC, > 100 µM; in the experiment with ACHN renal it was > 100 µM; with MDA-MB-435 it was > 100 µM; with NCI-H226 lung it was > 100 µM; in the experiment with NCI-H23 lung, > 100 µM. The GI50 in the experiment on OVCAR-3 ovarian, in the experiment on SF-539 CNS, in the experiment on SK-MEL-28 melanoma and in the experiment on TK-10 renal was > 100 µM throughout. Besides, the TGI with A498 renal, with A549 NSCLC, in the experiment on ACHN renal, in the experiment on MDA-MB-435, in the experiment with NCI-H226 lung and in the experiment on NCI-H23 lung was > 100 µM each time. Besides, the total growth inhibition concentration (TGI) with OVCAR-3 ovarian, in the experiment with SF-539 CNS, in the experiment on SK-MEL-28 melanoma and in the experiment with TK-10 renal was > 100 µM in each case.

On to `Cc1ccc2c(c1)c1nc3cc(C)c(C)cc3nc1n2CCN(C)C`, for which the GI50 in the experiment with A498 renal was 1.77 µM; in the experiment on A549 NSCLC, 1.79 µM; with ACHN renal, 0.821 µM; with MDA-MB-435, 1.98 µM; in the experiment with NCI-H226 lung it was 1.86 µM; with NCI-H23 lung, 2.04 µM. Moreover, the GI50 in the experiment with OVCAR-3 ovarian was 2.37 µM; in the experiment with SF-539 CNS, 2.15 µM; in the experiment with SK-MEL-28 melanoma it was 2.55 µM; in the experiment on TK-10 renal, 2.11 µM. For the same molecule, the TGI in the experiment with A498 renal was 3.34 µM; in the experiment on A549 NSCLC it was 4.72 µM; with ACHN renal, 5.92 µM; in the experiment with MDA-MB-435, 4.42 µM; with NCI-H226 lung it was 4.69 µM; in the experiment with NCI-H23 lung, 5.9 µM. Further, the TGI in the experiment on OVCAR-3 ovarian was 6.59 µM; with SF-539 CNS it was 6.13 µM; in the experiment with SK-MEL-28 melanoma, 5.46 µM; with TK-10 renal, 7.94 µM.

Turning to `COc1cc2c3c(n(CCCN(CCN)CCCn4c5c(c6cc(OC)c(OC)cc6c4=O)C(=O)c4cc6c(cc4-5)OCO6)c(=O)c2cc1OC)-c1cc2c(cc1C3=O)OCO2`, the GI50 in the experiment on A498 renal is 6.71 µM; in the experiment on A549 NSCLC it was 2.72 µM; in the experiment with ACHN renal, 0.376 µM; in the experiment on MDA-MB-435, 2.22 µM; in the experiment on NCI-H226 lung, 0.449 µM; with NCI-H23 lung, 0.984 µM. For the same molecule, the GI50 with OVCAR-3 ovarian is 4.34 µM; in the experiment with SF-539 CNS, 0.238 µM; in the experiment with SK-MEL-28 melanoma, > 37.1 µM; with TK-10 renal it was 3.11 µM. Besides, the TGI was 25.7 µM with A498 renal; > 100 µM in the experiment on A549 NSCLC; 3.02 µM in the experiment on ACHN renal; 23.2 µM in the experiment with MDA-MB-435; 2.76 µM with NCI-H226 lung; 5.24 µM in the experiment with NCI-H23 lung. The TGI was 20.7 µM in the experiment on OVCAR-3 ovarian, 0.731 µM with SF-539 CNS, > 100 µM with SK-MEL-28 melanoma and > 24.8 µM in the experiment with TK-10 renal.

Consider `COc1cc2c(cc1O)-c1c(cnn1-c1ccc([N+](=O)[O-])cc1)CCC2`, for which the total growth inhibition concentration (TGI) in the experiment on A498 renal is 80.3 µM; in the experiment on A549 NSCLC, 42.4 µM; in the experiment on ACHN renal it was 14.6 µM; in the experiment with MDA-MB-435 it was 48.6 µM; in the experiment on NCI-H226 lung, 47.5 µM; with NCI-H23 lung, 41.9 µM. Besides, the TGI was 55.2 µM in the experiment with OVCAR-3 ovarian, 33.4 µM in the experiment on SF-539 CNS, > 100 µM with SK-MEL-28 melanoma and 32.6 µM in the experiment with TK-10 renal.
